Our source for the Kd values is PMC12167799, “The role of human Shu complex in ATP-dependent regulation of RAD51 filaments during homologous recombination–associated DNA damage response” (The Journal of Biological Chemistry, 2025).

This test concerns the target T1, hSWS1-SWSAP1 (human Shu complex) (Homo sapiens, UniProt Q6NVH7).
T1 construct: heterodimer co-expressed in High Five insect cells (baculovirus); SWSAP1 with TEV-cleavable N-terminal 6xHis tag (cleaved), SWS1 untagged; with Zinc finger SWIM domain-containing protein 7
T1 sequence (Q6NVH7 22-250): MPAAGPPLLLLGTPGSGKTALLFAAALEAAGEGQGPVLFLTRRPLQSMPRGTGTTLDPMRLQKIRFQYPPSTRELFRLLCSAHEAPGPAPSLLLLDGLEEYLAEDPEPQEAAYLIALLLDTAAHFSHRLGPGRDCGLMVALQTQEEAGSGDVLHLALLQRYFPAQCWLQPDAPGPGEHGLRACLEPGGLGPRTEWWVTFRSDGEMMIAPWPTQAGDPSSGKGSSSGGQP
T1 sequence (Q19AV6 1-140 partner): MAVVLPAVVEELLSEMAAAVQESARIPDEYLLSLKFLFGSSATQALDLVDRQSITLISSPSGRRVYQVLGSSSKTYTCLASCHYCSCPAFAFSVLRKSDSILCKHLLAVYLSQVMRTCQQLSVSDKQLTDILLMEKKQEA
The experiment in a line: TNP-ATP displacement fluorescence, one-site competitive fit. The note with it: read-out: Kd^ATP; 2 μM protein; 2.5 μM TNP-ATP; no DNA; 37 °C; competitive with TNP-ATP. The test is classed as binding.

Take `Nc1ncnc2c1ncn2[C@@H]1O[C@H](COP(=O)(O)OP(=O)(O)OP(=O)(O)O)[C@@H](O)[C@H]1O` [ATP]: the Kd is 72.3 µM.

The term Kd denotes the concentration at which binding is half-saturated.
